{
  "source": "patent US7094421B2",
  "about": "“Plaster containing 4-biphenylacetic acid” (Teikoku Seiyaki Co., Ltd., priority 2000, dated 2006)",
  "origin": "cited, not measured here",
  "conditions": "solvent crotamiton",
  "data": [
    {"smiles": "O=C(O)Cc1ccc(-c2ccccc2)cc1", "note": "[4-biphenylacetic acid]", "values": [
      {"measurement": "solubility of 4-biphenylacetic acid in crotamiton", "value": "about 7%"}
    ]}
  ]
}
